ChEMBL document CHEMBL4330083, “Synthesis and evaluation of isoprenylation-resveratrol dimer derivatives against Alzheimer's disease” (Eur J Med Chem, 2019)
Calls of active or inactive are those of the source. The rule behind the calls is not given here.

Assays:
PC-12 [1] = assay: Neuroprotection against H2O2-induced oxidative damage in rat PC12 cells assessed as viable cells at 10 uM after 24 hrs in presence of H2O2 by annexin V-FITC/propidium iodide staining based flow cytometric analysis (reference value: 63.6%); assay type: functional; conditions: PC-12, 24 h, read-out: Activity
PC-12 [2] = assay: Neuroprotection against H2O2-induced oxidative damage in rat PC12 cells assessed as late apoptotic cells at 5 uM after 24 hrs in presence of H2O2 by annexin V-FITC/propidium iodide staining based flow cytometric analysis (reference value: 29.8%); assay type: functional
[3] = Neuroprotection against H2O2-induced inflammation in […] cells assessed as reduction in ROS production by measuring mean fluorescence intensity at 10 uM after 18 hrs by DCFH-DA staining-based flow cytometric analysis (reference value: 11273); assay type: functional
PC-12 [4] = assay: Neuroprotection against H2O2-induced oxidative damage in rat PC12 cells assessed as mitochondrial membrane potential at 2.5 uM after 24 hrs in presence of H2O2 by Jc-1 staining based flow cytometric analysis (reference value: 16.35 +/- 3.19%); assay type: functional
PC-12 [5] = assay: Neuroprotection against H2O2-induced oxidative damage in rat PC12 cells assessed as early apoptotic cells at 10 uM after 24 hrs in presence of H2O2 by annexin V-FITC/propidium iodide staining based flow cytometric analysis (reference value: 2.1%); assay type: functional
PC-12 [6] = assay: Neuroprotection against H2O2-induced oxidative damage in rat PC12 cells assessed as late apoptotic cells at 2.5 uM after 24 hrs in presence of H2O2 by annexin V-FITC/propidium iodide staining based flow cytometric analysis (reference value: 29.8%); assay type: functional
PC-12 [7] = assay: Neuroprotection against H2O2-induced oxidative damage in rat PC12 cells assessed as intracellular Ca2+ level by measuring mean fluorescence intensity at 10 uM after 24 hrs in presence of H2O2 by Fluo-3/AM staining based flow cytometric analysis (reference value: 43156); assay type: functional
PC-12 [8] = assay: Neuroprotection against H2O2-induced oxidative damage in rat PC12 cells assessed as viable cells at 2.5 uM after 24 hrs in presence of H2O2 by annexin V-FITC/propidium iodide staining based flow cytometric analysis (reference value: 64.1%); assay type: functional; conditions: PC-12, 24 h, read-out: Activity
PC-12 [9] = assay: Neuroprotection against H2O2-induced oxidative damage in rat PC12 cells assessed as intracellular Ca2+ level by measuring mean fluorescence intensity at 2.5 uM after 24 hrs in presence of H2O2 by Fluo-3/AM staining based flow cytometric analysis (reference value: 51697); assay type: functional
PC-12 [10] = assay: Neuroprotection against H2O2-induced oxidative damage in rat PC12 cells assessed as intracellular Ca2+ level by measuring mean fluorescence intensity at 5 uM after 24 hrs in presence of H2O2 by Fluo-3/AM staining based flow cytometric analysis (reference value: 51697); assay type: functional
PC-12 [11] = assay: Neuroprotection against H2O2-induced oxidative damage in rat PC12 cells assessed as early apoptotic cells at 5 uM after 24 hrs in presence of H2O2 by annexin V-FITC/propidium iodide staining based flow cytometric analysis (reference value: 29.3%); assay type: functional
PC-12 [12] = assay: Neuroprotection against H2O2-induced oxidative damage in rat PC12 cells assessed as early apoptotic cells at 2.5 uM after 24 hrs in presence of H2O2 by annexin V-FITC/propidium iodide staining based flow cytometric analysis (reference value: 29.3%); assay type: functional
PC-12 [13] = assay: Neuroprotection against H2O2-induced oxidative damage in rat PC12 cells assessed as reduction in ROS production by measuring mean fluorescence intensity at 2.5 uM preincubated for 4 hrs followed by H2O2 addition measured after 24 hrs by DCFH-DA staining-based flow cytometric analysis (reference value: 102489); assay type: functional
PC-12 [14] = assay: Neuroprotection against H2O2-induced oxidative damage in rat PC12 cells assessed as late apoptotic cells at 2.5 uM after 24 hrs in presence of H2O2 by annexin V-FITC/propidium iodide staining based flow cytometric analysis (reference value: 6.2%); assay type: functional
PC-12 [15] = assay: Neuroprotection against H2O2-induced oxidative damage in rat PC12 cells assessed as increase in mitochondrial membrane potential at 2.5 to 10 uM after 24 hrs in presence of H2O2 by JC-1 staining based flow cytometric analysis; assay type: functional, cell-based

| Compound | viability at 10 µM (PC-12 [1]) | Activity (PC-12 [2]) | Flu intensity [3] | Activity (PC-12 [4]) | Activity (PC-12 [5]) | Activity (PC-12 [6]) | Flu intensity (PC-12 [7]) | viability at 2.5 µM (PC-12 [8]) | Flu intensity (PC-12 [9]) | Flu intensity (PC-12 [10]) | Activity (PC-12 [11]) | Activity (PC-12 [12]) | Flu intensity (PC-12 [13]) | Activity (PC-12 [14]) | Activity (PC-12 [15]) |
| --- | --- | --- | --- | --- | --- | --- | --- | --- | --- | --- | --- | --- | --- | --- | --- |
| CC(C)=CCc1c(O)cc(/C=C/c2ccc3c(c2)[C@H](c2cc(O)c4c(c2)OC(C)(C)CC4)[C@@H](c2ccc(O)cc2)O3)cc1O | 92.7% | 12.4% | 7407 | 42.34% | 1.9% | 25.1% | 35826 | – | – | – | – | – | – | – | – |
| CC(C)=CCc1c(O)cc(/C=C/c2ccc3c(c2)[C@H](c2cc(O)c(CC=C(C)C)c(O)c2)[C@@H](c2ccc(O)cc2)O3)cc1O | – | – | – | – | – | – | – | 75.9% | 40059 | 38796 | 13.1% | 19.4% | 97612 | 4.2% | Active |
